{
  "source": "patent US20210255193A1",
  "about": "“LYSINE REACTIVE PROBES AND USES THEREOF” (The Scripps Research Institute, priority 2017, published 2021)",
  "data": [
    {"target": "T1, HK1 Hexokinase-1 (Homo sapiens, UniProt P19367)", "T1 construct": "isoTOP-ABPP experiments performed in cell lysates (in vitro); endogenous in cells; host or cells: soluble proteome of human cancer cell lines (MDA-MB-231; Ramos and Jurkat also prepared)", "T1 sequence (P19367 1-917)": "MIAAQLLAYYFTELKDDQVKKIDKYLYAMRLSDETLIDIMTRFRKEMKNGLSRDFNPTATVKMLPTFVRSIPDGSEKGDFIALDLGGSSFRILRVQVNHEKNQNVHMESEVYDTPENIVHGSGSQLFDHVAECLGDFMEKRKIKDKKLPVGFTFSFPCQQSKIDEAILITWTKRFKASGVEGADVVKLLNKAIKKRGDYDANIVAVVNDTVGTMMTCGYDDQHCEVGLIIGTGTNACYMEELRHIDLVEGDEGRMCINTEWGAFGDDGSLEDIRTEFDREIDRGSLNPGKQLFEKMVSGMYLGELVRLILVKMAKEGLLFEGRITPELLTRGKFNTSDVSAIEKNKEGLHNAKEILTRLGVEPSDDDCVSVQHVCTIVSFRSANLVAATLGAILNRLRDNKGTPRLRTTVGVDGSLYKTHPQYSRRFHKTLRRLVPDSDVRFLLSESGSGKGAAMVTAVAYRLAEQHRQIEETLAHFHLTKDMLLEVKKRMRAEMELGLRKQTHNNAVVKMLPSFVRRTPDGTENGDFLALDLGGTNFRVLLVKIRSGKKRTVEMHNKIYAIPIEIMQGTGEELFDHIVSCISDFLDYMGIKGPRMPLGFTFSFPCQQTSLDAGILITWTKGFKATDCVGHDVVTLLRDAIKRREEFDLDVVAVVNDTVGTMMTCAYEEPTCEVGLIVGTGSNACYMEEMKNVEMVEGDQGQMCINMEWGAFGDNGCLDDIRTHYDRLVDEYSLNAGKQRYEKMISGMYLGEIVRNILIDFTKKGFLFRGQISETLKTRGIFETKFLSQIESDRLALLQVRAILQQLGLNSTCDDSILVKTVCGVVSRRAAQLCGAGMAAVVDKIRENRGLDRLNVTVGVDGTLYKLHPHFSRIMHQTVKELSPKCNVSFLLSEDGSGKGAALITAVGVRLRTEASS", "experiment": "competitive isoTOP-ABPP", "type": "binding", "parameters": "key to isoTOP-ABPP reactivity ratio at lysine P19367_K510: R = MS1 peak area ratio, DMSO (heavy) / compound-treated (light)", "settings": "50 uM, 231 sol, in vitro", "description": "(§1) In vitro covalent fragment treatment for isoTOP-ABPP. All compounds were made up as solutions in DMSO (100×) and were used at a final concentration of 50 μM for activated esters and 100 μM for guanidinylating agents. For each profiling sample, 0.5 ml of lysate was treated with 5 μl of the 100× compound stock solution or 5 μl of DMSO. Samples were treated with activated esters for\n(§2) STP-alkyne labeling and click chemistry. For concentration-dependent reactivity measurements by isoTOP-ABPP, 0.5 ml proteome aliquots were treated at ambient temperature with 1 mM STP-alkyne 1 (5 μl of 100 mM stock in DMSO) and 0.1 mM STP alkyne 1 (5 μl of 10 mM stock in DMSO), respectively. For competitive isoTOP-ABPP, after in vitro fragment treatment (detailed above), the samples were labeled for 1 h at ambient temperature with 0.1 mM STP-alkyne 1 (5 μl of 10 mM stock in DMSO). Samples were conjugated by copper-mediated azide-alkyne cycloaddition (CuAAC) to either the light (1 mM STP-alkyne or fragment treated) or heavy (0.1 mM STP-alkyne or DMSO treated) TEV tags (10 μl of 5 mM stocks in DMSO, final concentration=100 μM) using tris(2-carboxyethyl)phosphine hydrochloride\n(§3) R value calculation and processing. The ratios of light and heavy MS1 peaks for each unique peptide were quantified with a CIMAGE software using default parameters (3 MS1 acquisitions per peak and signal to noise threshold set to 2.5). For reactivity measurements by isoTOP-ABPP, the R value was calculated from the ratio of MS1 peak areas, comparing the 1 mM STP alkyne sample (light TEV tag) with the 0.1 mM STP alkyne sample (heavy TEV tag). For competitive isoTOP-ABPP, the R value was calculated from the ratio of MS1 peak areas, comparing the DMSO treated sample (heavy TEV tag) with the compound treated sample (light TEV tag). […] Ratios for unique peptide entries are calculated for each experiment; overlapping peptides with the same modified lysine (for example, different charge states, MudPIT chromatographic steps or tryptic termini) are grouped together and the median ratio is reported as the final ratio (R). The peptide ratios reported by CIMAGE were further filtered to ensure the removal or correction of low-quality ratios in each individual data set. The quality filters applied were the following: removal of half tryptic peptides; for ratios with high standard deviations from the median (90% of the median or above) the lowest ratio was taken instead of the median; removal of peptides with R=20 and only a single MS2 event triggered during the elution of the parent ion; manual annotation of all the peptides with ratios of 20, removing any peptides with low quality elution profiles that remained after the previous curation steps (only done for competitive isoTOP-ABPP).\n(§4) Cross-data processing for fragment screening. For compound treated samples, biological replicates of the same condition were averaged, if the standard deviation was below 60% of the mean; otherwise, for lysines with at least one R value <4 for a particular compound, the lowest value of the ratio set was taken. For lysines, where all R values for a particular compound were ≥4, the average was reported. For peptides containing several possible modified lysines, the lysine with the highest number of quantification events was used for analysis and the remaining, redundant peptides were reported as alternative modification sites. Peptides included in the aggregate dataset (those used for further bioinformatics and statistical analyses) were required to have been quantified in 2 experiments for competitive isoTOP-ABPP. Lysines were categorized as liganded, if they had at least one ratio R≥4 (hit fragments). For liganded lysines with R=20 for all liganding events, lysines were required to have been quantified with R=20 in two separate experiments and were further required to have been quantified with R<20 in one additional experiment.", "values": [
      {"smiles": "O=C(Oc1c(F)c(F)c(F)c(F)c1F)c1ccc2ccccc2n1", "note": "[fragment 25, Pentafluorophenyl quinoline-2-carboxylate]", "isoTOP-ABPP reactivity ratio at lysine P19367_K510": 1.2},
      {"smiles": "O=C(CCc1coc2cc(F)ccc2c1=O)Oc1c(F)c(F)c(F)c(F)c1F", "note": "[fragment 26, Pentafluorophenyl 3-(7-fluoro-4-oxo-4H-chromen-3-yl)propanoate]", "isoTOP-ABPP reactivity ratio at lysine P19367_K510": 3.4},
      {"smiles": "O=C(CN1C(=O)c2ccccc2C1=O)Oc1c(F)c(F)c(F)c(F)c1F", "note": "[fragment 27, Pentafluorophenyl 2-(1,3-dioxoisoindolin-2-yl)acetate]", "isoTOP-ABPP reactivity ratio at lysine P19367_K510": 1.3},
      {"smiles": "CCn1cc(C(=O)Oc2c(F)c(F)c(F)c(F)c2F)c(=O)c2ccc(C)nc21", "note": "[fragment 28, Pentafluorophenyl 1-ethyl-7-methyl-4-oxo-1,4-dihydro-1,8-naphthyridine-3-carboxylate]", "isoTOP-ABPP reactivity ratio at lysine P19367_K510": 0.9},
      {"smiles": "O=C(CCc1cn(-c2ccccc2)nc1-c1ccccc1)Oc1ccc([N+](=O)[O-])cc1[N+](=O)[O-]", "note": "[fragment 29, 2,4-Dinitrophenyl 3-(1,3-diphenyl-1H-pyrazol-4-yl)propanoate]", "isoTOP-ABPP reactivity ratio at lysine P19367_K510": 10.8},
      {"smiles": "O=C(Oc1ccc([N+](=O)[O-])cc1[N+](=O)[O-])C(c1ccccc1)c1ccccc1", "note": "[fragment 30, 2,4-Dinitrophenyl 2,2-diphenylacetate]", "isoTOP-ABPP reactivity ratio at lysine P19367_K510": 1.0},
      {"smiles": "O=C(Oc1ccc([N+](=O)[O-])cc1[N+](=O)[O-])c1cc(C(F)(F)F)cc(C(F)(F)F)c1", "note": "[fragment 31, 2,4-Dinitrophenyl 3,5-bis(trifluoromethyl)benzoate]", "isoTOP-ABPP reactivity ratio at lysine P19367_K510": 1.1},
      {"smiles": "Cn1cc(CC(=O)Oc2ccc([N+](=O)[O-])cc2[N+](=O)[O-])c2ccccc21", "note": "[fragment 32, 2,4-Dinitrophenyl 2-(1-methyl-1H-indol-3-yl)acetate]", "isoTOP-ABPP reactivity ratio at lysine P19367_K510": 8.6},
      {"smiles": "COc1cc(CCC(=O)Oc2ccc([N+](=O)[O-])cc2[N+](=O)[O-])cc(OC)c1OC", "note": "[fragment 33, 2,4-Dinitrophenyl 3-(3,4,5-trimethoxyphenyl)propanoate]", "isoTOP-ABPP reactivity ratio at lysine P19367_K510": 20.0}
    ]},
    {"target": "T1, HK1 Hexokinase-1", "experiment": "competitive isoTOP-ABPP", "type": "binding", "parameters": "key to isoTOP-ABPP reactivity ratio at lysine P19367_K510: R = MS1 peak area ratio, DMSO (heavy) / compound-treated (light)", "settings": "50 uM, in vitro, sol, 231", "description": "as §1, §2, §3, §4", "values": [
      {"smiles": "O=C(Oc1ccc([N+](=O)[O-])cc1[N+](=O)[O-])C1CCN(C(=O)OCc2ccccc2)CC1", "note": "[fragment 34, 1-Benzyl 4-(2,4-dinitrophenyl) piperidine-1,4-dicarboxylate]", "isoTOP-ABPP ratio (R) at liganded lysine P19367_K510": 20.0},
      {"smiles": "O=C(Oc1ccc([N+](=O)[O-])cc1[N+](=O)[O-])c1ccc2ccccc2n1", "note": "[fragment 35, 2,4-Dinitrophenyl quinoline-2-carboxylate]", "isoTOP-ABPP ratio (R) at liganded lysine P19367_K510": 1.1},
      {"smiles": "O=C(CCc1coc2cc(F)ccc2c1=O)Oc1ccc([N+](=O)[O-])cc1[N+](=O)[O-]", "note": "[fragment 36, 2,4-Dinitrophenyl 3-(7-fluoro-4-oxo-4H-chromen-3-yl)propanoate]", "isoTOP-ABPP ratio (R) at liganded lysine P19367_K510": 3.7},
      {"smiles": "O=C(Oc1ccc([N+](=O)[O-])cc1[N+](=O)[O-])c1ccc(-c2ccccc2)cc1", "note": "[fragment 37, 2,4-Dinitrophenyl [1,1′-biphenyl]-4-carboxylate]", "isoTOP-ABPP ratio (R) at liganded lysine P19367_K510": 0.9},
      {"smiles": "O=C(CC12CC3CC(CC(C3)C1)C2)Oc1ccc([N+](=O)[O-])cc1[N+](=O)[O-]", "note": "[fragment 38, 2,4-Dinitrophenyl 2-(adamantan-1-yl)acetate]", "isoTOP-ABPP ratio (R) at liganded lysine P19367_K510": 1.7},
      {"smiles": "O=C(Oc1ccc([N+](=O)[O-])cc1[N+](=O)[O-])c1ccc(Oc2ccccc2)cc1", "note": "[fragment 39, 2,4-Dinitrophenyl 4-phenoxybenzoate]", "isoTOP-ABPP ratio (R) at liganded lysine P19367_K510": 0.9},
      {"smiles": "CC(C)(C)OC(=O)NCCCC(=O)Oc1ccc([N+](=O)[O-])cc1[N+](=O)[O-]", "note": "[fragment 41, 2,4-Dinitrophenyl 4-((tert-butoxycarbonyl)amino)butanoate]", "isoTOP-ABPP ratio (R) at liganded lysine P19367_K510": 12.6},
      {"smiles": "O=C(Oc1ccc([N+](=O)[O-])cc1[N+](=O)[O-])C(c1ccccc1)(c1ccccc1)c1ccccc1", "note": "[fragment 42, 2,4-Dinitrophenyl 2,2,2-triphenylacetate]", "isoTOP-ABPP ratio (R) at liganded lysine P19367_K510": 0.8},
      {"smiles": "CC(=O)Oc1ccc([N+](=O)[O-])cc1[N+](=O)[O-]", "note": "[fragment 43, 2,4-Dinitrophenyl acetate]", "isoTOP-ABPP ratio (R) at liganded lysine P19367_K510": 20.0}
    ]},
    {"target": "T1, HK1 Hexokinase-1", "experiment": "competitive isoTOP-ABPP", "type": "binding", "parameters": "key to isoTOP-ABPP reactivity ratio at lysine P19367_K510: R = MS1 peak area ratio, DMSO (heavy) / compound-treated (light)", "settings": "50 uM_231_sol_in vitro", "description": "as §1, §2, §3, §4", "values": [
      {"smiles": "N#Cc1ccc(C(=O)Oc2ccc([N+](=O)[O-])cc2[N+](=O)[O-])cc1", "note": "[fragment 44, 2,4-Dinitrophenyl 4-cyanobenzoate]", "isoTOP-ABPP ratio, lysine P19367_K510": 1.2},
      {"smiles": "O=C(CCc1ccc2c(c1)OCO2)Oc1ccc([N+](=O)[O-])cc1[N+](=O)[O-]", "note": "[fragment 45, 2,4-Dinitrophenyl 3-(benzo[d][1,3]dioxol-5-yl)propanoate]", "isoTOP-ABPP ratio, lysine P19367_K510": 5.3}
    ]},
    {"target": "T1, HK1 Hexokinase-1", "experiment": "competitive isoTOP-ABPP", "type": "binding", "parameters": "key to isoTOP-ABPP reactivity ratio at lysine P19367_K510: R = MS1 peak area ratio, DMSO (heavy) / compound-treated (light)", "settings": "P19367_K510; 50 uM, 231 sol, in vitro", "description": "as §1, §2, §3, §4", "values": [
      {"smiles": "O=C(CCc1cn(-c2ccccc2)nc1-c1ccccc1)Oc1c(F)c(F)c(F)c(F)c1F", "note": "[fragment 19, Pentafluorophenyl 3-(1,3-diphenyl-1H-pyrazol-4-yl)propanoate]", "R value (DMSO/fragment) for probe 1 labeling": 1.2},
      {"smiles": "O=C(Oc1c(F)c(F)c(F)c(F)c1F)C(c1ccccc1)c1ccccc1", "note": "[fragment 20, Pentafluorophenyl 2,2-diphenylacetate]", "R value (DMSO/fragment) for probe 1 labeling": 0.9},
      {"smiles": "O=C(Oc1c(F)c(F)c(F)c(F)c1F)c1cc(C(F)(F)F)cc(C(F)(F)F)c1", "note": "[fragment 21, Pentafluorophenyl 3,5-bis(trifluoromethyl)benzoate]", "R value (DMSO/fragment) for probe 1 labeling": 1.0},
      {"smiles": "Cn1cc(CC(=O)Oc2c(F)c(F)c(F)c(F)c2F)c2ccccc21", "note": "[fragment 22, Pentafluorophenyl 2-(1-methyl-1H-indol-3-yl)acetate]", "R value (DMSO/fragment) for probe 1 labeling": 1.3},
      {"smiles": "COc1cc(CCC(=O)Oc2c(F)c(F)c(F)c(F)c2F)cc(OC)c1OC", "note": "[fragment 23, Pentafluorophenyl 3-(3,4,5-trimethoxyphenyl)propanoate]", "R value (DMSO/fragment) for probe 1 labeling": 2.0}
    ]}
  ]
}
